Measurements reported in patent publication US12310967B2, “Compositions and methods of treatment for neurological disorders comprising motor neuron diseases” (Gliapharm SA, priority 2017, dated 2025).

Assays:
primary astrocytes [1] = assay: MTT viability assay; format: cell-based; settings: Mus musculus, Astrocyte; CDC54K hits, 0-200 uM, 24 h
Description: For cell toxicity determination, astrocytes in 96-well plates were stimulated 24 h (37° C. 5% CO2/95% air) with a gradient ranging from 0.1 to 200 μM of tested compounds. After stimulation, 5 mg/ml thiazol blue tetrazolium bromide (MTT, Sigma-Aldrich) in warm D5030 complete medium was added to each well, and cells were incubated for 4 h at 37° C. (5% CO2). The medium was then removed by aspiration, and the reaction was stopped by the addition of 50 μl DMSO per well.
The amount of reduced MTT (formazan) solubilized in DMSO was then determined spectrophotometrically using absorbance at 570 nm (Safire 2; Tecan).
MTT cellular viability assay was performed on astrocytes exposed to Preswtick Hits (concentrations ranging from 0 uM to 200 uM).
MTT cellular viability assay was performed on astrocytes exposed to CDC54K Hits (concentrations ranging from 0 uM to 200 uM).

primary astrocytes [2] = assay: Intracellular glycogen quantification; format: cell-based, mouse; settings: CDC54K hits, 10 μM, 3 h
Description: For glycogen dosage, a protein dosage was first performed in order to assess whether harvested astrocytes from primary cell cultures yielded enough and equivalent amounts of proteins comparing each replicate, and to ensure that the obtained differences in glycogen quantities were due to drug action and not to inner protein quantities.
Astrocytes used for these dosages were previously grown in 6-well plates for 17 days and stimulated with Vehicle (DMSO) or drug of interest (1 μM to 100 μM) for 180 min, at 37° C. 5% CO2/95% air in D5030 complete medium. Medium was removed and replaced with 600 μl of 30 mM Tris HCl, and stored at −20° C.
Proteins were dosed using the micro BCA Protein Assay kit (Thermo Scientific), as described in the manufacturer's instructions. Briefly, thawed cells were sonicated and 5 μl aliquots were placed in a transparent 96-well plate, to which we added 25 μl 30 mM Tris HCl, 70 μl H2O and 100 μl of a BCA mix (made as described in manufacturer's guidelines). After a 120 min-incubation at 37° C., absorbance was measured with Safire 2 spectrophotometer at a wavelength of 562 nm, and protein quantities were determined from a standard curve of Bovine Serum Albumin (BSA).
Glycogen was quantified using a 250 μl-aliquot of the same stimulated, thawed, and sonicated cells. After an incubation period of 30 min at 90° C. and 400 rpm, 28 μl of an acetic acid/sodium acetate (both from Sigma) 0.1M pH 4.6 buffer was added to each aliquot, which was then separated in two. Each split aliquot received whether 5 μl of amyloglucosidase (Roche) or 5 μl H2O, and all cell solutions were incubated for 120 min in a shaking 37° C.-waterbath. After a centrifugation at 16'000G for 5 min, 20 μl of supernatant were placed 96-well plate, to which 150 μl of a mix containing 0.67 mM ATP (Roche), 0.67 mM NADP (Roche), 1.8% hexokinase/glucose-6-phosphate dehydrogenase (Roche) and 0.1M Tris Buffer-HCl/3.3 mM magnesium (Fluka)/pH 8.1 buffer was added. Fluorescence was measured with Safire 2 spectrophotometer (340 nm excitation/440 nm emission). Glycogen concentration was obtained by substracting glucose value of samples with amyloglucosidase to samples without amyloglucosidase, and were expressed relative to the amount of proteins previously determined.
Levels of intracellular glycogen in astrocytes were measured at 3 h after stimulation with 20 Hits from the Prestwick library (10 μM each), as shown in FIG. 2. n=6-10; Ctrl pos. is glutamate (0.5 mM). Statistical analysis consisted in ANOVA followed by Fisher LSD post-hoc test for pair-wise comparisons.
Statistical analysis consisted in ANOVA followed by Fisher LSD post-hoc test for pair-wise comparisons.

primary astrocytes [3] = assay: Mitochondrial activity: production of H2O2 (Amplex red); format: cell-based; settings: Mus musculus, Astrocyte, 1.5 h; CDC54K hits, 0-200 uM, 90 min
Description: Hydrogene peroxide (H2O2) released in the supernatant is detected enzymatically with Amplex red (Zhou, Diwu et al. 1997). Oxidation of Amplex red is catalysed by the horseradish peroxidase in presence of H2O2 into highly fluorescent resorufin. Fluorescence measure is read at 545 nm extinction, 590 nm emission. The amount of H2O2 was expressed relatively to the proteins content extracted from the cells in culture.
Mitochondrial respiration in astrocytes was measured through production of H2O2 at 90 min after stimulation with Prestwick Hits (10 uM each). […] CCCP (2 uM) was used as positive control.
Mitochondrial respiration in astrocytes was measured through production of H2O2 at 90 min after stimulation with CDC54K Hits (ranging from 0 to 200 uM).

primary astrocytes [4] = assay: Intracellular glycogen quantification, Example 2; format: cell-based, mouse; settings: 10 μM, 3 h
Description: Astrocytes grown on 12-well plates were used for intracellular glycogen quantifications. Cells were stimulated with Vehicle (DMSO), with compounds of the invention (10 μM), or with a positive control for 180 min, at 37° C. 5% CO2/95% air in D5030 medium complemented with
5 mM D-glucose and 44 mM sodium bicarbonate (pH 7.2). […] At the end of the stimulation, medium was removed and replaced with 600 μl of 30 mM Tris HCl, and stored at −20° C.
First, the amount of proteins in each sample was quantified to assess whether harvested astrocytes from primary cell cultures yielded enough and equivalent amounts of proteins on each replicates. Proteins were quantified using the micro BCA Protein Assay kit (Thermo Scientific), according to manufacturer's instructions. Next, intracellular glycogen concentrations were quantified using a 250 μl-aliquot of the same stimulated, thawed, and sonicated cell lysate. After an incubation period of 30 min at 90° C. and 400 rpm, 28 μl of a 0.1M acetic acid/sodium acetate buffer (pH 4.6) was added to each lysate aliquots, which were then separated in two. Each split aliquots received either 5 μl of amyloglucosidase or H2O, and incubated for 120 min at 37° C. After centrifugation at 16'000G for 5 min, 20 μl of supernatant were placed in a 96-well plate, to which 150 μl of a mix containing 0.67 mM ATP, 0.67 mM NADP, 1.8% hexokinase/glucose-6-phosphate dehydrogenase in a 0.1M Tris Buffer-HCl/3.3 mM magnesium (pH 8.1) buffer was added. Fluorescence intensity (340 nm excitation/440 nm emission) was measured using a Safire 2 spectrophotometer. Glucose concentrations were assessed relative to a glucose standard curve, and glycogen concentrations were calculated by subtracting glucose values of samples that had received amyloglucosidase (i.e. that had degraded their glycogen stores) to samples that had not. Intracellular levels of glycogen, which is the main source of glucose storage in the brain, were analyzed in primary astrocytes after treatment with compounds of interest (10 μM, 3 h) (FIG. 5B), and compound GP-0157 (0.1, 1, 10 μM, 3 h) (FIG. 20).

Row | IC50 (primary astrocytes [3]) | Structure (SMILES) | IC50 (primary astrocytes [1]) | Glycogen (statistical significance of glycogen degradation) (primary astrocytes [2]) | mobilization of intracellular glycogen (primary astrocytes [4])
1 | 173 µM | CSc1cccc(NS(=O)(=O)c2ccc3onc(C(=O)N4CCCC4)c3c2)c1 [L995-0125] | > 200 µM | ns | –
2 | > 200 µM | CC(=O)N1CCc2sc(S(=O)(=O)N3CCN(c4ccccc4C)CC3)cc2C1 [P025-0159] | > 200 µM | ns | significantly enhance
3 | > 200 µM | Cc1ccccc1NC(=O)C1CCCN(c2ncnc3oc(C)c(C)c23)C1 (stereo not drawn) [F228-0422] | > 200 µM | ** (** p<0.01) | significantly enhance
4 | > 200 µM | COc1cc(C)c(Cl)cc1S(=O)(=O)NCc1ccncc1 [T5580243] | > 200 µM | ns | –
5 | > 200 µM | O=C1CCCN1c1ccc(S(=O)(=O)Nc2cccc(/C=C/c3ccccn3)c2)cc1 [T5644989] | > 200 µM | ** (** p<0.01) | significantly enhance
6 | > 200 µM | CCc1ccc(S(=O)(=O)N2CCSC2c2ccc(OC)c(OC)c2)cc1 (stereo not drawn) [T5463586] | > 200 µM | *** (*** p<0.001) | –
7 | > 200 µM | N#Cc1ccc(C(=O)N2CCC(Nc3ncnc4c3CCC4)C2)cc1 (stereo not drawn) [T636-2387] | > 200 µM | ns | significantly enhance
8 | 158 µM | CCc1ccc(S(=O)(=O)Nc2ccc3[nH]ncc3c2)cc1 [T5599014] | > 200 µM | ns | –
9 | 48.6 µM | CCn1nccc1-c1csc(S(=O)(=O)Nc2ccc(Cl)cc2F)c1 [L924-1031] | > 200 µM | ** (** p<0.01) | significantly enhance
10 | > 200 µM | CCc1nc(-c2csc(S(=O)(=O)NCc3ccc4c(c3)OCO4)c2)no1 [L287-0468] | > 200 µM | ** (** p<0.01) | significantly enhance
11 | – | c1ccc2c(c1)CCN(c1ncnc3sccc13)C2 [T0517-8250] | – | ns | significantly enhance
12 | > 200 µM | Cc1nc2ccc(NS(=O)(=O)c3cccc(F)c3)cc2s1 [T6937001] | > 200 µM | ns | significantly enhance
